Results taken from US9340493B2, “Hydroxamic acid derivatives useful as antibacterial agents” (Pfizer Inc., priority 2008, dated 2016).
≈ marks a conversion by molar mass, not a printed value.

How the values were obtained:
Klebsiella pneumoniae = assay: MIC determination, K. pneumoniae; assay type: cell-based; details: ciprofloxacin-resistant, ESBL-expressing clinical isolate, * = arithmetic mean of 2-6 MIC determinations, read-out: MIC (ug/mL) K. pneumoniae
Outline: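 MIC determined by broth dilution per CLSI M7-A7 and M100-S18 guidelines. Strain: ciprofloxacin-resistant, ESBL-expressing clinical isolate of K. pneumoniae.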

[1] = system: Acinetobacter baumanii/haemolyticus; assay: MIC determination, A. baumanii/haemolyticus; assay type: cell-based; details: Acinetobacter baumannii; multidrug-resistant clinical isolate; * = arithmetic mean of 2-6 MIC determinations; read-out: MIC (ug/mL) A. baumanii/haemolyticus
Outline: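 MICs were determined by CLSI broth dilution (M7-A7, M100-S18) against a multidrug-resistant clinical isolate of Acinetobacter baumanii/haemolyticus.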

P. aeruginosa UI-18 = assay: MIC determination, P. aeruginosa UI-18; assay type: cell-based; details: Pseudomonas aeruginosa, UI18; wild-type; * = arithmetic mean of 2-6 MIC determinations; read-out: MIC (ug/mL) P. aeruginosa UI-18
Outline: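 MIC by broth dilution following CLSI M7-A7 and M100-S18 guidelines, tested against wild-type P. aeruginosa UI-18.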

Enterobacter aerogenes = assay: MIC determination, E. aerogenes; assay type: cell-based; details: Klebsiella aerogenes; quinolone-resistant, ESBL-expressing clinical isolate; * = arithmetic mean of 2-6 MIC determinations; read-out: MIC (ug/mL) E. aerogenes
Outline: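 Clinical E. aerogenes isolate, quinolone-resistant and ESBL-expressing. MIC measured in vitro by dilution testing according to CLSI guidelines (M7-A7, M100-S18).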

[2] = system: Staphylococcus aureus ATCC 29213; assay: MIC determination, S. aureus ATCC 29213; assay type: cell-based; details: ATCC29213, CLSI quality control reference strain, * = arithmetic mean of 2-6 MIC determinations, read-out: MIC (ug/mL) S. aureus ATCC 29213
Outline: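 MIC was measured by dilution susceptibility testing following CLSI guidelines (M7-A7; M100-S18). The test organism is the CLSI quality-control reference strain.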

P. aeruginosa PAO280 = assay: MIC determination, P. aeruginosa PAO280; assay type: cell-based; details: Pseudomonas aeruginosa, PAO280, read-out: MIC (ug/mL) P. aeruginosa PAO280
Outline: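 Broth dilution MIC per CLSI M7-A7/M100-S18 guidelines. Strain PAO280 lacks efflux pumps MexAB-oprM, MexXY and MexZ.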

Escherichia coli EC-1 = assay: MIC determination, E. coli EC-1; assay type: cell-based; details: EC1, EC-1: VOGEL, * = arithmetic mean of 2-6 MIC determinations, read-out: MIC (ug/mL) E. coli EC-1
Outline: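 Minimum inhibitory concentration against Escherichia coli EC-1 was determined in vitro by dilution susceptibility testing under CLSI M7-A7 and M100-S18 guidelines.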

[3] = biological target: T1, Pseudomonas aeruginosa LpxC enzyme (Pseudomonas aeruginosa, UniProt P47205); assay: IC50 assay, LpxC enzyme from P. aeruginosa; assay type: biochemical; details: 0.5 nM enzyme, 25° C., pH 8.0, 20 min; ** = average of 2-8 assays
T1 construct: made in house; host or cells: E. coli
T1 sequence (P47205 1-303): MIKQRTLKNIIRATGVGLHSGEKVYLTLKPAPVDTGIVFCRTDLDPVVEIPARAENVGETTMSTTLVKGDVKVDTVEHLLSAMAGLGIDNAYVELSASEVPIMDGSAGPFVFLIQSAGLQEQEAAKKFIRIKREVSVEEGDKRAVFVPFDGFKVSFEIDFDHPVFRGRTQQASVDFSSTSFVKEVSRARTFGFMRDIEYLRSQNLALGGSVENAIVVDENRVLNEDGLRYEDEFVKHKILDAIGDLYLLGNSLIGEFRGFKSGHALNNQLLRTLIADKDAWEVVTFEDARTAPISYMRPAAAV
Outline: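 P. aeruginosa LpxC (0.5 nM, expressed in E. coli) reacted with 0.5 uM ³H-acetyl-labelled UDP-3-O-(R-3-hydroxydecanoyl)-GlcNAc in 50 mM sodium phosphate pH 8.0 with 1 mg/ml BSA at 25 °C for 20 min. Charcoal stopped the reaction, and filtrate radioactivity was counted by scintillation after no-enzyme background subtraction.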

SMILES	MIC (Klebsiella pneumoniae)	MIC [1]	MIC (P. aeruginosa UI-18)	MIC (Enterobacter aerogenes)	MIC [2]	MIC (P. aeruginosa PAO280)	MIC (Escherichia coli EC-1)	IC50 [3]
CC(OCc1ccc(-c2ccccc2)cc1)(C(=O)NO)C(=O)NCc1nnn[nH]1 (stereo not drawn) [Example 57, 2-(biphenyl-4-ylmethoxy)-N-hydroxy-2-methyl-N′-(1H-tetrazol-5-ylmethyl)malonamide]	> 64 µg/mL	> 64 µg/mL	> 64 µg/mL	> 64 µg/mL	> 64 µg/mL	4 µg/mL (≈ 10.1 µM)	> 64 µg/mL	0.00134 µM
CC(CO)(OCc1ccc(-c2ccc(Cl)cc2)cc1)C(=O)NO (stereo not drawn) [Example 62, 2-[(4′-chlorobiphenyl-4-yl)methoxy]-N,3-dihydroxy-2-methylpropanamide]	> 32 µg/mL	> 32 µg/mL	32 µg/mL (≈ 95.3 µM)	> 32 µg/mL	> 32 µg/mL	1 µg/mL (≈ 2.98 µM)	> 32 µg/mL	0.00417 µM
CC(CO)(OCc1ccc(-c2ccc(F)cc2F)cc1)C(=O)NO (stereo not drawn) [Example 66, 2-[(2′,4′-difluorobiphenyl-4-yl)methoxy]-N,3-dihydroxy-2-methylpropanamide]	> 64 µg/mL	> 64 µg/mL	64 µg/mL (≈ 190 µM)	> 64 µg/mL	> 64 µg/mL	1.5 µg/mL (≈ 4.45 µM)	> 64 µg/mL	0.00332 µM
CC(OCc1ccc(-c2ccccc2)cc1)(C(=O)NO)C(=O)NCc1cc(-c2ccccc2)on1 (stereo not drawn) [Example 67, 2-(biphenyl-4-ylmethoxy)-N-hydroxy-2-methyl-N′-[(5-phenylisoxazol-3-yl)methyl]malonamide]	> 16 µg/mL	8 µg/mL (≈ 17 µM)	4 µg/mL (≈ 8.48 µM)	> 16 µg/mL	> 16 µg/mL	0.5 µg/mL (≈ 1.06 µM)	16 µg/mL (≈ 33.9 µM)	0.0032 µM
CC(OCc1ccc(-c2ccccc2)cc1)(C(=O)NO)C(=O)NCc1nc(-c2ccccc2)no1 (stereo not drawn) [Example 69, 2-(biphenyl-4-ylmethoxy)-N-hydroxy-2-methyl-N′-[(3-phenyl-1,2,4-oxadiazol-5-yl)methyl]malonamide]	> 16 µg/mL	16 µg/mL (≈ 33.9 µM)	12 µg/mL (≈ 25.4 µM)	> 16 µg/mL	> 16 µg/mL	0.75 µg/mL (≈ 1.59 µM)	16 µg/mL (≈ 33.9 µM)	0.00446 µM
Cc1cccnc1CCNC(=O)C(C)(OCc1ccc(-c2ccccc2)cc1)C(=O)NO (stereo not drawn) [Example 70, 2-(biphenyl-4-ylmethoxy)-N-hydroxy-2-methyl-N′-[2-(3-methylpyridin-2-yl)ethyl]malonamide]	> 64 µg/mL	32 µg/mL (≈ 73.8 µM)	32 µg/mL (≈ 73.8 µM)	> 64 µg/mL	> 64 µg/mL	1 µg/mL (≈ 2.31 µM)	16 µg/mL (≈ 36.9 µM)	0.00804 µM
CC(OCc1ccc(-c2ccccc2)cc1)(C(=O)NO)C(=O)NCc1ccncn1 (stereo not drawn) [Example 71, 2-(biphenyl-4-ylmethoxy)-N-hydroxy-2-methyl-N′-(pyrimidin-4-ylmethyl)malonamide]	> 64 µg/mL	> 64 µg/mL	16 µg/mL (≈ 39.4 µM)	> 64 µg/mL	> 64 µg/mL	0.125 µg/mL (≈ 0.308 µM)	32 µg/mL (≈ 78.7 µM)	0.00394 µM
CC(OCc1ccc(-c2ccccc2)cc1)(C(=O)NO)C(=O)NCc1cn2ccccc2n1 (stereo not drawn) [Example 83, 2-(biphenyl-4-ylmethoxy)-N-hydroxy-N′-(imidazo[1,2-a]pyridin-2-ylmethyl)-2-methylmalonamide]	64 µg/mL (≈ 144 µM)	64 µg/mL (≈ 144 µM)	8 µg/mL (≈ 18 µM)	> 64 µg/mL	> 32 µg/mL	0.125 µg/mL (≈ 0.281 µM)	16 µg/mL (≈ 36 µM)	0.00218 µM
Cc1cc(CNC(=O)C(C)(OCc2ccc(-c3ccc(-c4cc(CO)no4)cc3)cc2)C(=O)NO)no1 (stereo not drawn) [Example 84, N-hydroxy-2-({4′-[3-(hydroxymethyl)isoxazol-5-yl]biphenyl-4-yl}methoxy)-2-methyl-N′-[(5-methylisoxazol-3-yl)methyl]malonamide]	8 µg/mL (≈ 15.8 µM)	> 64 µg/mL	2 µg/mL (≈ 3.95 µM)	16 µg/mL (≈ 31.6 µM)	> 64 µg/mL	0.06 µg/mL (≈ 0.118 µM)	1 µg/mL (≈ 1.97 µM)	0.000861 µM
